In patent US20220125898A1, “PAR2 MODULATION AND METHODS THEREOF” (JANSSEN BIOTECH, INC., priority 2019, published 2022):
Changes are numbered by the printed parent chain.

Key:
[1] = tested on: HEK293 cells with par1 and par2 knocked-out; test: FLIPR characterization of par1 and par2 knock-out HEK293 cells; format: cell-based, human
Excerpt: A PAR1, PAR2 knock-out HEK293 cell line was created by Applied StemCells (Milpitas, Calif.) using a CRISPR/Cas9 approach. Briefly, the coding region (nucleotide 374-643) of PAR1, which encodes the protein region transmembrane region 2 (TM2) to transmembrane region 3 (TM3) of PAR1, was deleted. Similarly, the coding region (281-627) of PAR2, which encodes the protein region TM2 to TM3 of PAR2, was deleted. Single cell clones were isolated. PCR analysis of the genomic DNA followed by DNA sequencing was used to confirm the deletion of the DNA fragments.
FLIPR-Tetra (Molecular Device, San Jose, Calif.) was used to monitor intracellular Ca^2+ mobilization in HEK293 cells, HEK293 cells with PAR1 and PAR2 knocked-out, and cells transiently transfected with various PAR2 expression constructs. Cells were grown in 96-well polyD-lysine coated black FLIPR plates (Corning) in DMEM supplemented with 10% FCS, 1 mM pyruvate, 20 mM HEPES, at 37° C. with 5% CO2. For transient transfection, cells were grown in 96-well polyD-lysine coated black FLIPR plates and transfected using FuGENE HD (Promega, Madison, Wis.) as the transfection reagent according to the manufacturer's instructions. […] Intracellular Ca^2+ mobilization stimulated by various concentrations of ligands (trypsin, or peptide ligand) was monitored by FLIPR-Tetra as described (Liu et al., Mol. Pharmacol. 88:911-25 (2015)). […]

[2] = target: T1, recombinantly expressed PAR2 (Homo sapiens, UniProt P55085); test: FLIPR intracellular Ca2+ mobilization, recombinant wild type PAR2 transiently expressed in par1/par2 knock-out HEK293; format: cell-based
T1 construct: was used to amplify the full length PAR2 cDNA coding region; expressed in transfected cells; host or cells: HEK293 cells with par1 and par2 knocked out, transient, pcDNA3.1
T1 sequence (P55085 26-397): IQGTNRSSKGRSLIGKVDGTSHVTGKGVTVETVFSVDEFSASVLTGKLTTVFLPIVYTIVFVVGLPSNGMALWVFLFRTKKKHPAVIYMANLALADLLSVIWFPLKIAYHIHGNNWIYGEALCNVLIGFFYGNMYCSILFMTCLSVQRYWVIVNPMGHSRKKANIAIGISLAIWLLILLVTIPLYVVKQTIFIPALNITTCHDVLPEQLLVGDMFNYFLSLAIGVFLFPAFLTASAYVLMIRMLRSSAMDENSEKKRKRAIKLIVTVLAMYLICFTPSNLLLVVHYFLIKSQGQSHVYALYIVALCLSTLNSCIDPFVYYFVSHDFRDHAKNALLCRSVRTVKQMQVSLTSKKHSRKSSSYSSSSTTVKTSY
Protocol: (§1) FLIPR-Tetra (Molecular Device, San Jose, Calif.) was used to monitor intracellular Ca^2+ mobilization in HEK293 cells, HEK293 cells with PAR1 and PAR2 knocked-out, and cells transiently transfected with various PAR2 expression constructs. Cells were grown in 96-well polyD-lysine coated black FLIPR plates (Corning) in DMEM supplemented with 10% FCS, 1 mM pyruvate, 20 mM HEPES, at 37° C. with 5% CO2. For transient transfection, cells were grown in 96-well polyD-lysine coated black FLIPR plates and transfected using FuGENE HD (Promega, Madison, Wis.) as the transfection reagent according to the manufacturer's instructions. For samples treated with protease inhibitors, protease cocktail was added to cell culture one day after transfection and incubated overnight. Two days after transfection, cell culture media were removed, and cells were washed using HMS buffer plus 20 mM HEPES. Ca^2+ dye (Flura 3) diluted in HMS buffer plus 20 mM HEPES was used to incubate cells at RT for 40 minutes to allow Ca^2+ to enter cells. Intracellular Ca^2+ mobilization stimulated by various concentrations of ligands (trypsin, or peptide ligand) was monitored by FLIPR-Tetra as described (Liu et al., Mol. Pharmacol. 88:911-25 (2015)). The untransfected cells were used as negative controls.

[3] = target: T2, endogenously expressed PAR2 in HEK293 cells (Homo sapiens, UniProt P55085); test: FLIPR intracellular Ca2+ mobilization, wild type HEK293 cells; format: cell-based; settings: endogenous PAR2, HEK293 cells
T2 construct: the endogenously expressed PAR2 in HEK293 cells; endogenous in cells; host or cells: wild type HEK293 cells
T2 sequence (P55085 26-397): T1 sequence (P55085 26-397)
Protocol: as §1

[4] = target: T3, PAR2ΔSP (Homo sapiens, UniProt P55085); test: FLIPR intracellular Ca2+ mobilization, PAR2 without signal peptide in par1/par2 knock-out HEK293; format: cell-based; settings: PAR2 without its signal peptide
T3 construct: expressed in transfected cells; host or cells: HEK293 cells with par1 and par2 knocked out, transient, pcDNA3.1
T3 sequence (P55085 with tags, fused parts or gaps): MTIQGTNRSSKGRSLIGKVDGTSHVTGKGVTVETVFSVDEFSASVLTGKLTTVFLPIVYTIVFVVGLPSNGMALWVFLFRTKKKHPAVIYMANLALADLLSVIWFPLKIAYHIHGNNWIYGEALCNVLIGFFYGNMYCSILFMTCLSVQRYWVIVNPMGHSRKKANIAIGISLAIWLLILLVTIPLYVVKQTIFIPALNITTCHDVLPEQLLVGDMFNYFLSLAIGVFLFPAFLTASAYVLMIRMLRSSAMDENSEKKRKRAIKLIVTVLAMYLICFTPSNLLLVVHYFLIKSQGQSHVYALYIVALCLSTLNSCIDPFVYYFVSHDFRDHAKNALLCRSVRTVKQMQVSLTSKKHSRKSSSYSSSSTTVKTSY
Protocol: as §1, with “controls. […]” for “controls.”

[5] = target: T4, PAR2ΔSPΔL (Homo sapiens, UniProt P55085); test: FLIPR intracellular Ca2+ mobilization, PAR2 without signal peptide and tethered ligand; format: cell-based
T4 construct: expressed in transfected cells; host or cells: HEK293 cells with par1 and par2 knocked out, transient
T4 sequence (P55085 with tags, fused parts or gaps): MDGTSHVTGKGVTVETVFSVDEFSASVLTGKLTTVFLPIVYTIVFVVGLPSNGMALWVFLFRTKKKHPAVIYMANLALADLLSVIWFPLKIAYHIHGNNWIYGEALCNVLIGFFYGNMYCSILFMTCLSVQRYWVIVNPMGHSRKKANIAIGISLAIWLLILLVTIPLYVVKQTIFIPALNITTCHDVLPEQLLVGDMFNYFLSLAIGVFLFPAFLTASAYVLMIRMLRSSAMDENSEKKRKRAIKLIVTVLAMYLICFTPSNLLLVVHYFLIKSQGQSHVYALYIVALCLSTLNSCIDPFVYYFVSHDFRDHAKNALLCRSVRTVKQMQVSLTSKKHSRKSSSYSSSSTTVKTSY
Protocol: as §1, with “Intracellular Ca^2+ mobilization stimulated by various concentrations of ligands (trypsin, or peptide ligand) was monitored by FLIPR-Tetra as described (Liu et al., Mol. Pharmacol. 88:911-25 (2015)).” left out

[6] = target: T5, PAR2(R36A) (Homo sapiens, UniProt P55085, R36A); test: FLIPR intracellular Ca2+ mobilization, full length PAR2 with Arg36Ala mutation; format: cell-based
T5 construct: expressed in transfected cells; host or cells: HEK293 cells with par1 and par2 knocked out, transient
T5 sequence (P55085 26-397 R36A): T1 sequence (P55085 26-397) with R11A
Protocol: as §1, with “Intracellular Ca^2+ mobilization stimulated by various concentrations of ligands (trypsin, or peptide ligand) was monitored by FLIPR-Tetra as described (Liu et al., Mol. Pharmacol. 88:911-25 (2015)).” left out

[7] = target: T6, PAR2ΔSP(R36A) (Homo sapiens, UniProt P55085, R36A); test: FLIPR intracellular Ca2+ mobilization, signal peptide-less PAR2 with Arg36Ala mutation; format: cell-based
T6 construct: expressed in transfected cells; host or cells: HEK293 cells with par1 and par2 knocked out, transient
T6 sequence (P55085 with tags, fused parts or gaps R36A): T3 sequence (P55085 with tags, fused parts or gaps) with R13A
Protocol: as §1, with “Intracellular Ca^2+ mobilization stimulated by various concentrations of ligands (trypsin, or peptide ligand) was monitored by FLIPR-Tetra as described (Liu et al., Mol. Pharmacol. 88:911-25 (2015)).” left out

[8] = target: Human PAR2 wild type, recombinantly expressed in HEK293 cells with par1 and par2 knocked-out (human) (UniProt P55085); test: cell-based or functional assay
[9] = target: PAR2 endogenously expressed in HEK293 cells (human) (UniProt P55085); test: cell-based or functional assay
[10] = target: PAR2 with the signal peptide deleted (PAR2ΔSP) (human) (UniProt P55085); test: cell-based or functional assay
[11] = target: T7, Human PAR2 wild type, recombinantly expressed in HEK293 cells with par1 and par2 knocked-out (human, UniProt P55085 37-397); test: cell-based or functional assay
T7 sequence: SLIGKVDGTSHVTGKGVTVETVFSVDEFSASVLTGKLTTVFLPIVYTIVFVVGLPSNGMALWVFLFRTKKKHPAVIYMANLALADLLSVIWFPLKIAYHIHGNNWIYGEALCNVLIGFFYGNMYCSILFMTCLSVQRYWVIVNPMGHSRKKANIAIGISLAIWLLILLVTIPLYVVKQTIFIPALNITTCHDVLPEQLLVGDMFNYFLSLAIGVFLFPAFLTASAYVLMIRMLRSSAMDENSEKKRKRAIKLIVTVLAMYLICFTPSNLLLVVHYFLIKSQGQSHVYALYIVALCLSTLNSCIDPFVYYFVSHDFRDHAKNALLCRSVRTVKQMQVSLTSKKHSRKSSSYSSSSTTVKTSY

[12] = target: T8, PAR2 endogenously expressed in HEK293 cells (human, UniProt P55085 37-397); test: cell-based or functional assay
T8 sequence (looked up): T7 sequence

[13] = target: T9, PAR2 with the signal peptide deleted (PAR2ΔSP) (human, UniProt P55085 37-397); test: cell-based or functional assay
T9 sequence: T7 sequence

thrombin
response of knock-out cells to ligand [1]: lack of response

trypsin
EC50 [2]: 1.5 nM
EC50 [3]: 10 nM
EC50 [4]: 50 nM
receptor activation in FLIPR assay [5]: not activated
receptor response to ligand stimulation in FLIPR assay [6]: very poorly
receptor response to ligand stimulation in FLIPR assay [7]: blocked
response of knock-out cells to ligand [1]: lack of response

Trypsin (sequencing grade) (enzyme)
EC50, FLIPR intracellular Ca2+ mobilization [8]: 1.5 nM
EC50, FLIPR intracellular Ca2+ mobilization [9]: 10 nM
EC50, FLIPR intracellular Ca2+ mobilization [10]: 50 nM

B1: PAR2 agonist peptide ligand, SLIGKV (peptide)
peptide: SLIGKV
EC50, FLIPR intracellular Ca2+ mobilization [11]: 50 nM
EC50, FLIPR intracellular Ca2+ mobilization [12]: 1500 nM
EC50, FLIPR intracellular Ca2+ mobilization [13]: 5800 nM
EC50, FLIPR intracellular Ca2+ mobilization, cells treated with protease inhibitor cocktail [13]: 700 nM
